In patent US11357817B2, “Immunoproteasome inhibitor” (The Regents of the University of California, priority 2017, dated 2022):

Columns and labels:
HepG2 cells = experiment: HepG2 cytotoxicity assay; assay type: cell-based; conditions: Homo sapiens
Procedure: The liver-stage and HepG2 toxicity assays were performed as previously reported (35). Briefly, HepG2-A16-CD81EGFP, human hepatocarcinoma HepG2 cells stably transformed to express the tetraspanin CD81 receptor (36, 37) and thus susceptible to P. berghei infection, were cultured at 37° C. in 5% CO2 in DMEM (Life Technologies, Calif.) supplemented with 10% FBS, 0.29 mg/ml glutamine, 100 unit penicillin and 100 μg/ml streptomycin. For both the P. berghei-luciferase and HepG2 cytotoxicity assays, 3×10^3 of the HepG2-A16-CD81EGFP cells in 5 μl of assay medium (DMEM without Phenol Red (Life Technologies, Calif.), 5% FBS, and 5× Pen Strep Glutamine (Life Technologies, Calif.)) at concentration 6×10^5 cells/ml were seeded in 1536-well plates (Greiner BioOne white solid bottom custom GNF mold) 20-26 hours prior to the actual infection. 18 hours prior to infection, 50 nl of compound in DMSO (0.5% final DMSO concentration per well) were transferred with Acoustic Transfer System (ATS) (Biosero) into the assay plates. Atovaquone (12-point serial dilution starting at 10 μM) and Puromycin (12-point serial dilution starting at 10 μM) were used as positive controls for Pb. liver stage assay and HepG2 cytotoxicity respectively. 0.5% DMSO was used as negative control for the both assays.
An. stephensi mosquitoes, infected with P. berghei-luciferase, were provided by the New York University Insectary. P. berghei-luciferase sporozoites were freshly dissected from the infected A. stephensi mosquito salivary glands, filtered twice through a 20 μm nylon net filter using Steriflip Vacuum-Driven Filtration System (Millipore), counted in a hemocytometer, and then adjusted to final concentration 200 sporozoites per μl in the assay media. […] The HepG2-A16-CD81EGFP cell designated for toxicity studies were left uninfected, with 5 ul of additional assay media added to each well to maintain equal concentrations of compounds with P. berghei-luciferase infected plates. After incubation at 37° C. for 48 hours the exoerythrocytic growth and HepG2-A16-CD81EGFP cell viability were quantified by a bioluminescence measurement.
The HepG2 cytotoxicity was assessed by removing the media through an inverted spin of the plates at 150 g for 30 s and addition of 2 μL of CellTiterGlo reagent (Promega diluted 1:2 with deionized water) per well using the MicroFlo liquid handler (BioTek). Immediately after addition of the luminescence reagent, the plates were vortexed for 10 s and read with an EnVision Multilabel reader (PerkinElmer). IC50 values were obtained as above.

P. falciparum Dd2 = P. falciparum Dd2 asexual blood stage SYBR Green I compound sensitivity assay; assay type: cell-based, Plasmodium falciparum; conditions: for Selectivity Index: P. falciparum activity versus HepG2 activity; for IC50: asexual blood stage, 72 hour SYBR green assay
Procedure: P. falciparum Dd2 strain parasites were cultured under standard conditions (31), using RPMI media supplemented with 0.05 mg/ml gentamycin, 0.014 mg/mL hypoxanthine (prepared fresh), 38.4 mM HEPES, 0.2% Sodium Bicarbonate, 3.4 mM Sodium Hydroxide, 0.05% O+ Human Serum (Denatured at […] for 40 min and From Interstate Blood Bank, Memphis, Tenn.) and 0.0025% Albumax). Human O+ whole blood was obtained from TSRI blood bank (La Jolla, Calif.). Leukocyte-free erythrocytes are stored at 50% hematocrit in RPMI-1640 screening media (as above, but without O+ human serum and with 2× albumax concentration) at 4° C. for one to three weeks before experimental use. Cultures were monitored every one to two days via Giemsa-stained thin smears.
Compound susceptibility was measured using the malaria SYBR Green I-based fluorescence assay (32). Asynchronous P. falciparum parasites (Dd2 strain) were cultured in standard conditions before being plated for the assays. Each compound was tested over 72 hours in technical duplicates on a twelve-point concentration curve prepared by three-fold dilution from 6.7 μM to 0.11 nM. At least three independent experiments were carried out for IC50 determination. Artemisinin and chloroquine were used as controls. IC50 values were obtained using normalized fluorescence intensity from SYBR green I and analyzed via non-linear variable slope four-parameter regression curve-fitting model in Prism 6 (GraphPad Software Inc).

[1] = Plasmodium falciparum, DD2, 72 h

Compound	IC50 (HepG2 cells) [nM]	Selectivity Index (P. falciparum Dd2)	IC50 (P. falciparum Dd2; [1]) [nM]	Selectivity Index (P. falciparum Dd2; listed as 3)	IC50 (P. falciparum Dd2; listed as 3) [nM]	increase in selectivity (P. falciparum Dd2; D-amino acid at P3 in place of L-Val of analog 1, comparator not stated) [fold]	Selectivity Index (P. falciparum Dd2; listed as 20)	IC50 (P. falciparum Dd2; listed as 20) [nM]
CCCCCC(=O)N[C@@H](Cc1c[nH]c2ccccc12)C(=O)N[C@@H](Cc1c[nH]c2ccccc12)C(=O)N[C@@H](Cc1ccccc1)C(=O)[C@@]1(C)CO1 [Analog 17, N—((S)-1-(((S)-3-(1H-indol-3-yl)-1-(((S)-1-((R)-2-methyloxiran-2-yl)-1-oxo-3-phenylpropan-2-yl)amino)-1-oxopropan-2-yl)amino)-3-(1H-indol-3-yl)-1-oxopropan-2-yl)hexanamide]	346 ± 86.2	36.89	9.38 ± 0.667	–	–	–	–	–
CCCCCC(=O)N[C@@H](Cc1c[nH]c2ccccc12)C(=O)N[C@@H](Cc1c[nH]c2ccccc12)C(=O)N[C@@H](CC(C)C)C(=O)[C@@]1(C)CO1 [Analog 16, N—((S)-1-(((S)-3-(1H-indol-3-yl)-1-(((S)-4-methyl-1-((R)-2-methyloxiran-2-yl)-1-oxopentan-2-yl)amino)-1-oxopropan-2-yl)amino)-3-(1H-indol-3-yl)-1-oxopropan-2-yl)hexanamide]	11.7 ± 3.32	3.16	3.7 ± 0.144	–	–	–	–	–
CCCCCC(=O)N[C@@H](Cc1ccncc1)C(=O)N[C@@H](CCCC)C(=O)N[C@@H](Cc1ccccc1)C(=O)[C@@]1(C)CO1 [Analog 8, (S)-2-((S)-2-hexanamido-3-(pyridin-4-yl)propanamido)-N—((S)-1-((R)-2-methyloxiran-2-yl)-1-oxo-3-phenylpropan-2-yl)hexanamide]	< 0.283	0.07	3.87 ± 1.37	–	–	–	–	–
CCCCCC(=O)N[C@@H](Cc1ccccc1)C(=O)N[C@@H](CCCC)C(=O)N[C@@H](Cc1ccccc1)C(=O)[C@@]1(C)CO1 [Analog 7, (S)-2-((S)-2-hexanamido-3-phenylpropanamido)-N—((S)-1-((R)-2-methyloxiran-2-yl)-1-oxo-3-phenylpropan-2-yl)hexanamide]	30.8 ± 13.7	4.60	6.7 ± 0.451	–	–	–	–	–
CCCCCC(=O)N[C@@H](Cc1ccncc1)C(=O)N[C@@H](CCCC)C(=O)N[C@@H](CC(C)C)C(=O)[C@@]1(C)CO1 [Analog 3, (S)-2-((S)-2-hexanamido-3-(pyridin-4-yl)propanamido)-N—((S)-4-methyl-1-((R)-2-methyloxiran-2-yl)-1-oxopentan-2-yl)hexanamide]	< 0.283	–	–	0.09	3.28 ± 0.674	–	–	–
CCCCCC(=O)N[C@@H](Cc1c[nH]c2ccccc12)C(=O)N[C@@H](CCCC)C(=O)N[C@@H](Cc1ccccc1)C(=O)[C@@]1(C)CO1 [Analog 11, (S)-2-((S)-2-hexanamido-3-(1H-indol-3-yl)propanamido)-N—((S)-1-((R)-2-methyloxiran-2-yl)-1-oxo-3-phenylpropan-2-yl)hexanamide]	6.41 ± 2.26	0.66	9.77 ± 1.31	–	–	–	–	–
CCCCCC(=O)NC(Cc1ccc(NC(=O)OC(C)(C)C)cc1)C(=O)N[C@@H](Cc1ccc(NC(=O)OC(C)(C)C)cc1)C(=O)N[C@@H](CC(C)C)C(=O)[C@@]1(C)CO1 (stereo in doubt) [Analog 14, tert-butyl (4-((R)-3-(((S)-3-(4-((tert-butoxycarbonyl)amino)phenyl)-1-(((S)-4-methyl-1-((R)-2-methyloxiran-2-yl)-1-oxopentan-2-yl)amino)-1-oxopropan-2-yl)amino)-2-hexanamido-3-oxopropyl)phenyl)carbamate]	118 ± 21.7	8.74	13.5 ± 4.69	–	–	–	–	–
CCCCCC(=O)N[C@@H](Cc1ccc(NC(=O)OC(C)(C)C)cc1)C(=O)N[C@@H](CCCC)C(=O)N[C@@H](Cc1ccccc1)C(=O)[C@@]1(C)CO1 [Analog 10, tert-butyl (4-((S)-2-hexanamido-3-(((S)-1-(((S)-1-((R)-2-methyloxiran-2-yl)-1-oxo-3-phenylpropan-2-yl)amino)-1-oxohexan-2-yl)amino)-3-oxopropyl)phenyl)carbamate]	478 ± 126	87.71	5.45 ± 2.49	–	–	–	–	–
CCCCCC(=O)N[C@H](Cc1c[nH]c2ccccc12)C(=O)N[C@@H](CCCC)C(=O)N[C@@H](CC(C)C)C(=O)[C@@]1(C)CO1 [Analog 19, (S)-2-((R)-2-hexanamido-3-(1H-indol-3-yl)propanamido)-N—((S)-4-methyl-1-((R)-2-methyloxiran-2-yl)-1-oxopentan-2-yl)hexanamide]	915 ± 289	313.36	2.92 ± 0.403	–	–	100	–	–
CCCCCC(=O)N[C@@H](Cc1c[nH]c2ccccc12)C(=O)N[C@@H](CCCC)C(=O)N[C@@H](CC(C)C)C(=O)[C@@]1(C)CO1 [Analog 6, (S)-2-((S)-2-hexanamido-3-(1H-indol-3-yl)propanamido)-N—((S)-4-methyl-1-((R)-2-methyloxiran-2-yl)-1-oxopentan-2-yl)hexanamide]	3.27 ± 1.29	1.05	3.11 ± 0.026	–	–	–	–	–
CCCCCC(=O)N[C@@H](Cc1ccccc1)C(=O)N[C@@H](CCCC)C(=O)N[C@@H](CC(C)C)C(=O)[C@@]1(C)CO1 [Analog 2, (S)-2-((S)-2-hexanamido-3-phenylpropanamido)-N—((S)-4-methyl-1-((R)-2-methyloxiran-2-yl)-1-oxopentan-2-yl)hexanamide]	22.7 ± 8.42	5.62	4.04 ± 0.759	–	–	–	–	–
CCCCCC(=O)N[C@@H](Cc1ccc(N)cc1)C(=O)N[C@@H](CCCC)C(=O)N[C@@H](CC(C)C)C(=O)[C@@]1(C)CO1 [Analog 4, (S)-2-((S)-3-(4-aminophenyl)-2-hexanamidopropanamido)-N—((S)-4-methyl-1-((R)-2-methyloxiran-2-yl)-1-oxopentan-2-yl)hexanamide]	6.32 ± 4.99	1.06	5.99 ± 1.08	–	–	–	–	–
CCCCCC(=O)N[C@@H](Cc1ccncc1)C(=O)N[C@@H](CCCC)C(=O)N[C@@H](CC(C)C)C(=O)[C@@]1(C)CO1 [Analog 20]	–	–	–	–	–	–	0.01	21.8 ± 3.67
CCCCCC(=O)N[C@@H](Cc1ccc(NC(=O)OC(C)(C)C)cc1)C(=O)N[C@@H](CCCC)C(=O)N[C@@H](CC(C)C)C(=O)[C@@]1(C)CO1 [Analog 5, tert-butyl (4-((S)-2-hexanamido-3-(((S)-1-(((S)-4-methyl-1-((R)-2-methyloxiran-2-yl)-1-oxopentan-2-yl)amino)-1-oxohexan-2-yl)amino)-3-oxopropyl)phenyl)carbamate]	80.2 ± 26.5	14.45	5.55 ± 0.23	–	–	–	–	–
CCCCCC(=O)NC(Cc1ccc(NC(=O)OC(C)(C)C)cc1)C(=O)N[C@@H](Cc1ccc(NC(=O)OC(C)(C)C)cc1)C(=O)N[C@@H](Cc1ccccc1)C(=O)[C@@]1(C)CO1 (stereo in doubt) [Analog 15, tert-butyl (4-((R)-3-(((S)-3-(4-((tert-butoxycarbonyl)amino)phenyl)-1-(((S)-1-((R)-2-methyloxiran-2-yl)-1-oxo-3-phenylpropan-2-yl)amino)-1-oxopropan-2-yl)amino)-2-hexanamido-3-oxopropyl)phenyl)carbamate]	45.7 ± 15.7	3.75	12.2 ± 3.83	–	–	–	–	–
CCCCCC(=O)NC(Cc1ccc(N)cc1)C(=O)N[C@@H](Cc1ccc(N)cc1)C(=O)N[C@@H](Cc1ccccc1)C(=O)[C@@]1(C)CO1 (stereo in doubt) [Analog 13, N—((R)-3-(4-aminophenyl)-1-(((S)-3-(4-aminophenyl)-1-(((S)-1-((R)-2-methyloxiran-2-yl)-1-oxo-3-phenylpropan-2-yl)amino)-1-oxopropan-2-yl)amino)-1-oxopropan-2-yl)hexanamide]	952 ± 275	13.96	68.2 ± 15.4	–	–	–	–	–
